Like-named read-outs stand apart in the source and are kept apart here.
Tests used:
ETA (h) = ETA (h) (Homo sapiens, UniProt P25101); test: SafetyScreen44 binding assay ETA (h); conditions: agonist radioligand, read-out: % Inhibition of Specific Control Binding
From the text: (§1) This panel included 38 binding assays and six functional assays of well-established targets and pathways that lead to off-target adverse drug reactions.

KV channel = test: SafetyScreen44 binding assay KV channel; conditions: at 1 μM; antagonist radioligand
From the text: as §1

A2A (h) = A2A (h) (Homo sapiens, UniProt P29274); test: SafetyScreen44 binding assay A2A (h); conditions: agonist radioligand, read-out: % Inhibition of Specific Control Binding
From the text: as §1

[1] = test system: Ca2+ channel (L, dihydropyridine site); test: SafetyScreen44 binding assay Ca2+ channel (L, dihydropyridine site); conditions: at 1 μM; antagonist radioligand
From the text: as §1

H1 (h) = H1 (h) (Homo sapiens, UniProt P35367); test: SafetyScreen44 binding assay H1 (h); conditions: antagonist radioligand, read-out: % Inhibition of Specific Control Binding
From the text: as §1

hERG potassium channel = hERG potassium channel (Homo sapiens, UniProt Q12809); test: SafetyScreen44 binding assay Potassium Channel hERG (human)-[3H] Dofetilide; conditions: probe [3H] Dofetilide, read-out: % Inhibition of Specific Control Binding
From the text: as §1

5-HT3 (h) = 5-HT3 (h) (Homo sapiens, UniProt P46098); test: SafetyScreen44 binding assay 5-HT3 (h); conditions: antagonist radioligand, read-out: % Inhibition of Specific Control Binding
From the text: as §1

CCK1 (CCKA) (h) = CCK1 (CCKA) (h) (Homo sapiens, UniProt P32238); test: SafetyScreen44 binding assay CCK1 (CCKA) (h); conditions: agonist radioligand, read-out: % Inhibition of Specific Control Binding
From the text: as §1

beta 2 (h) = beta 2 (h) (Homo sapiens, UniProt P07550); test: SafetyScreen44 binding assay beta 2 (h); conditions: antagonist radioligand, read-out: % Inhibition of Specific Control Binding
From the text: as §1

M1 (h) = M1 (h) (Homo sapiens, UniProt P11229); test: SafetyScreen44 binding assay M1 (h); conditions: antagonist radioligand, read-out: % Inhibition of Specific Control Binding
From the text: as §1

[2] = molecular target: norepinephrine transporter (h) (Homo sapiens, UniProt P23975); test: SafetyScreen44 binding assay norepinephrine transporter (h); conditions: antagonist radioligand, read-out: % Inhibition of Specific Control Binding
From the text: as §1

D1 (h) = D1 (h) (Homo sapiens, UniProt P21728); test: SafetyScreen44 binding assay D1 (h); conditions: antagonist radioligand, read-out: % Inhibition of Specific Control Binding
From the text: as §1

PDE3A (h) = PDE3A (h) (Homo sapiens, UniProt Q14432); test: SafetyScreen44 enzyme assay PDE3A (h); type: biochemical; conditions: read-out: % Inhibition of Control Values
From the text: as §1

COX2(h) = COX2(h) (Homo sapiens, UniProt P35354); test: SafetyScreen44 enzyme assay COX2(h); type: biochemical; conditions: read-out: % Inhibition of Control Values
From the text: as §1

alpha 1A (h) = alpha 1A (h) (Homo sapiens, UniProt P35348); test: SafetyScreen44 binding assay alpha 1A (h); conditions: antagonist radioligand, read-out: % Inhibition of Specific Control Binding
From the text: as §1

CB2 (h) = CB2 (h) (Homo sapiens, UniProt P34972); test: SafetyScreen44 binding assay CB2 (h); conditions: agonist radioligand, read-out: % Inhibition of Specific Control Binding
From the text: as §1

mu (MOP) (h) = mu (MOP) (h) (Homo sapiens, UniProt P35372); test: SafetyScreen44 binding assay mu (MOP) (h); conditions: agonist radioligand, read-out: % Inhibition of Specific Control Binding
From the text: as §1

D2S (h) = D2S (h) (Homo sapiens, UniProt P14416); test: SafetyScreen44 binding assay D2S (h); conditions: agonist radioligand, read-out: % Inhibition of Specific Control Binding
From the text: as §1

[3] = molecular target: N neuronal alpha 4beta 2 (h) (Homo sapiens, UniProt P17787+P43681); test: SafetyScreen44 binding assay N neuronal alpha 4beta 2 (h); conditions: agonist radioligand, read-out: % Inhibition of Specific Control Binding
From the text: as §1

kappa (h) (KOP) = kappa (h) (KOP) (Homo sapiens, UniProt P41145); test: SafetyScreen44 binding assay kappa (h) (KOP); conditions: agonist radioligand, read-out: % Inhibition of Specific Control Binding
From the text: as §1

COX1(h) = COX1(h) (Homo sapiens, UniProt P23219); test: SafetyScreen44 enzyme assay COX1(h); type: biochemical; conditions: read-out: % Inhibition of Control Values
From the text: as §1

human AChE [4] = molecular target: T1, human AChE (Homo sapiens, UniProt P22303); type: biochemical
BZD (central) = test: SafetyScreen44 binding assay BZD (central); conditions: at 1 μM; agonist radioligand
From the text: as §1

CB1 (h) = CB1 (h) (Homo sapiens, UniProt P21554); test: SafetyScreen44 binding assay CB1 (h); conditions: agonist radioligand, read-out: % Inhibition of Specific Control Binding
From the text: as §1

[5] = molecular target: eel acetylcholinesterase (AChE) (Electrophorus electricus, UniProt O42275); test: Eel AChE fluorescence assay (AMPLEX Red kit); type: biochemical
Method: Enzymatic reactions consisted of 50 μM acetylcholine, 200 μM AIVIPLEX™ Red reagent, 1 U/mL horseradish peroxidase, 0.1 U/mL choline oxidase and 0.096 U/mL acetylcholinesterase, with 30 1% DMSO. […] Control reactions lacking acetylcholinesterase but containing 5 μM H2O2 in presence of compounds were analyzed at the same wavelength to exclude compounds that display assay interference. Dose-response curves were performed in duplicate.

5-HT2B (h) = 5-HT2B (h) (Homo sapiens, UniProt P41595); test: SafetyScreen44 binding assay 5-HT2B (h); conditions: agonist radioligand, read-out: % Inhibition of Specific Control Binding
From the text: as §1

Na+ channel (site 2) = test: SafetyScreen44 binding assay Na+ channel (site 2); conditions: at 1 μM; antagonist radioligand
From the text: as §1

NMDA = test: SafetyScreen44 binding assay NMDA; conditions: at 1 μM; antagonist radioligand
From the text: as §1

MAO-A = MAO-A (Rattus norvegicus, UniProt P21396); test: SafetyScreen44 binding assay MAO-A; conditions: antagonist radioligand, read-out: % Inhibition of Specific Control Binding
From the text: as §1

5-HT1B (h) = 5-HT1B (h) (Homo sapiens, UniProt P28222); test: SafetyScreen44 binding assay 5-HT1B (h); conditions: antagonist radioligand, read-out: % Inhibition of Specific Control Binding
From the text: as §1

Lck kinase (h) = Lck kinase (h) (Homo sapiens, UniProt P06239); test: SafetyScreen44 enzyme assay Lck kinase (h); type: biochemical; conditions: read-out: % Inhibition of Control Values
From the text: as §1

5-HT1A (h) = 5-HT1A (h) (Homo sapiens, UniProt P08908); test: SafetyScreen44 binding assay 5-HT1A (h); conditions: agonist radioligand, read-out: % Inhibition of Specific Control Binding
From the text: as §1

GR (h) = GR (h) (Homo sapiens, UniProt P04150); test: SafetyScreen44 binding assay GR (h); conditions: agonist radioligand, read-out: % Inhibition of Specific Control Binding
From the text: as §1

PDE4D2 (h) = PDE4D2 (h) (Homo sapiens, UniProt Q08499); test: SafetyScreen44 enzyme assay PDE4D2 (h); type: biochemical; conditions: read-out: % Inhibition of Control Values
From the text: as §1

acetylcholinesterase (h) = acetylcholinesterase (h) (Homo sapiens, UniProt P22303); test: SafetyScreen44 enzyme assay acetylcholinesterase (h); type: biochemical; conditions: at 1 μM
From the text: as §1

delta (DOP) (h) = delta (DOP) (h) (Homo sapiens, UniProt P41143); test: SafetyScreen44 binding assay delta (DOP) (h); conditions: agonist radioligand, read-out: % Inhibition of Specific Control Binding
From the text: as §1

alpha 2A (h) = alpha 2A (h) (Homo sapiens, UniProt P08913); test: SafetyScreen44 binding assay alpha 2A (h); conditions: antagonist radioligand, read-out: % Inhibition of Specific Control Binding
From the text: as §1

V1a (h) = V1a (h) (Homo sapiens, UniProt P37288); test: SafetyScreen44 binding assay V1a (h); conditions: agonist radioligand, read-out: % Inhibition of Specific Control Binding
From the text: as §1

human AChE [6] = molecular target: T1, human AChE; type: biochemical; remark: listed apart in the source
5-HT transporter (h) = 5-HT transporter (h) (Homo sapiens, UniProt P31645); test: SafetyScreen44 binding assay 5-HT transporter (h); conditions: antagonist radioligand, read-out: % Inhibition of Specific Control Binding
From the text: as §1

5-HT2A (h) = 5-HT2A (h) (Homo sapiens, UniProt P28223); test: SafetyScreen44 binding assay 5-HT2A (h); conditions: agonist radioligand, read-out: % Inhibition of Specific Control Binding
From the text: as §1

[7] = molecular target: human butyrylcholinesterase (BuChE) (Homo sapiens, UniProt P06276); test: Human BuChE colorimetric activity kit assay; type: biochemical
Method: Reactions were performed in 384-well plates (781162, Greiner BioOne, GmbH, Kremsmunster, Austria) with 1% DMSO, according to the manufacturer's instructions with a few modifications. Compounds were incubated with enzyme for 30 minutes at room temperature before addition of substrate. Total volume of the reaction was 100 μL, we use 5 μL enzyme and kinetic reactions were performed at 30° C. for 60 minutes using a microplate reader sold under the tradename SPECTRAMAX™ iD5 (Molecular Devices, San Jose, California, United States of America) and an absorbance of 412 nm. Percent activity was calculated by calculating the slope of each reaction as stated above and comparing the positive control (PC) to sample (S): % Relative activity=SlopeS/SlopePCx100. We evaluated if assay reagents could interfere with the absorbance by adding compound or DMSO to a 150 μM solution of 5-thio-2-nitrobenzoic acid and measuring at […].

M3 (h) = M3 (h) (Homo sapiens, UniProt P20309); test: SafetyScreen44 binding assay M3 (h); conditions: antagonist radioligand, read-out: % Inhibition of Specific Control Binding
From the text: as §1

M2 (h) = M2 (h) (Homo sapiens, UniProt P08172); test: SafetyScreen44 binding assay M2 (h); conditions: antagonist radioligand, read-out: % Inhibition of Specific Control Binding
From the text: as §1

H2 (h) = H2 (h) (Homo sapiens, UniProt P25021); test: SafetyScreen44 binding assay H2 (h); conditions: antagonist radioligand, read-out: % Inhibition of Specific Control Binding
From the text: as §1

beta 1 (h) = beta 1 (h) (Homo sapiens, UniProt P08588); test: SafetyScreen44 binding assay beta 1 (h); conditions: agonist radioligand, read-out: % Inhibition of Specific Control Binding
From the text: as §1

dopamine transporter (h) = dopamine transporter (h) (Homo sapiens, UniProt Q01959); test: SafetyScreen44 binding assay dopamine transporter (h); conditions: antagonist radioligand, read-out: % Inhibition of Specific Control Binding
From the text: as §1

T1 sequence (P22303 32-614): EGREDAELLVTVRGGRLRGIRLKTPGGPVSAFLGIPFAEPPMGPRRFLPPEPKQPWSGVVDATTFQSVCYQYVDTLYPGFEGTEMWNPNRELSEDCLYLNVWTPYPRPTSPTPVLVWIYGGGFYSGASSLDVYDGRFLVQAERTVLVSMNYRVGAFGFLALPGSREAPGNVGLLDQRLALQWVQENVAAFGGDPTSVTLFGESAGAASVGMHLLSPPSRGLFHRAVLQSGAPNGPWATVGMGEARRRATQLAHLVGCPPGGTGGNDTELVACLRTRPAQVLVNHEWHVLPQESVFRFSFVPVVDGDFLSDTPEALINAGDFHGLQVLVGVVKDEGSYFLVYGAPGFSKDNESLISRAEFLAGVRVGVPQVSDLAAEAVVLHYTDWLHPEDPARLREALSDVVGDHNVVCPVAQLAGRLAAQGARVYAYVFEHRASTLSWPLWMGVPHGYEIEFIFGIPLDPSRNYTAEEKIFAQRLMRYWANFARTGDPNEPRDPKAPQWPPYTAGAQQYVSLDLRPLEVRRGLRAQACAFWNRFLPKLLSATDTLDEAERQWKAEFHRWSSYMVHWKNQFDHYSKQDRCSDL
eel acetylcholinesterase (AChE), sequence (O42275 24-633): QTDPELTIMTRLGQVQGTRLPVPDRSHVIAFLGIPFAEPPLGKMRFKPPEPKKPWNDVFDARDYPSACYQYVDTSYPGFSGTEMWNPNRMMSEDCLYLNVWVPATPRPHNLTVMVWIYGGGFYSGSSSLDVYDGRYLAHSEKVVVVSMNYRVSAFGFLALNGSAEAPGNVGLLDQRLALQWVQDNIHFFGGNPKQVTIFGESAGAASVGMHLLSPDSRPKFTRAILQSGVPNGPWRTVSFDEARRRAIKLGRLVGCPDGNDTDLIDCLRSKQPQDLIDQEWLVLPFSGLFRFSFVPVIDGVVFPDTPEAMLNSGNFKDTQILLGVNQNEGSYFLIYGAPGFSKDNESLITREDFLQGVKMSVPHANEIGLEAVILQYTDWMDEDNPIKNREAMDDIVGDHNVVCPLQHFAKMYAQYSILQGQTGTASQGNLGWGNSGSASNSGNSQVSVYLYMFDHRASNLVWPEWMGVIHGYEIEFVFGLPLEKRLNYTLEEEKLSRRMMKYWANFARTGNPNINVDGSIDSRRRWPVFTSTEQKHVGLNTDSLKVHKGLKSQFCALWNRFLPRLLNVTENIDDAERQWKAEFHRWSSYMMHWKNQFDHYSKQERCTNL
human butyrylcholinesterase (BuChE), sequence (P06276 29-602): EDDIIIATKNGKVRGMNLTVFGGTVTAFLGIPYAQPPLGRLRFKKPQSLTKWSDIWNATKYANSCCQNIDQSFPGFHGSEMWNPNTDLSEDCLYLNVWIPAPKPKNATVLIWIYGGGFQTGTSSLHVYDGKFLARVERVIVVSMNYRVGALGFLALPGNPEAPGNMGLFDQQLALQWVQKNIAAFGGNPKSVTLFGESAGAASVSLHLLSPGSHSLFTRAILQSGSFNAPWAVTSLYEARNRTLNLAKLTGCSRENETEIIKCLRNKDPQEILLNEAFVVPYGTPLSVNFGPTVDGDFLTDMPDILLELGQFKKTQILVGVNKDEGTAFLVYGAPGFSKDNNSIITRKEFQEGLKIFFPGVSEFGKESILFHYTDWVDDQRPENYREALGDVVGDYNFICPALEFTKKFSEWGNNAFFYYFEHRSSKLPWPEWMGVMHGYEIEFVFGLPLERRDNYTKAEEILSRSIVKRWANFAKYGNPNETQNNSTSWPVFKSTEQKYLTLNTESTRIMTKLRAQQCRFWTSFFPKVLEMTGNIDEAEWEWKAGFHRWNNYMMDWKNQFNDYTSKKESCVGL
M2 (h), sequence (P08172 whole entry): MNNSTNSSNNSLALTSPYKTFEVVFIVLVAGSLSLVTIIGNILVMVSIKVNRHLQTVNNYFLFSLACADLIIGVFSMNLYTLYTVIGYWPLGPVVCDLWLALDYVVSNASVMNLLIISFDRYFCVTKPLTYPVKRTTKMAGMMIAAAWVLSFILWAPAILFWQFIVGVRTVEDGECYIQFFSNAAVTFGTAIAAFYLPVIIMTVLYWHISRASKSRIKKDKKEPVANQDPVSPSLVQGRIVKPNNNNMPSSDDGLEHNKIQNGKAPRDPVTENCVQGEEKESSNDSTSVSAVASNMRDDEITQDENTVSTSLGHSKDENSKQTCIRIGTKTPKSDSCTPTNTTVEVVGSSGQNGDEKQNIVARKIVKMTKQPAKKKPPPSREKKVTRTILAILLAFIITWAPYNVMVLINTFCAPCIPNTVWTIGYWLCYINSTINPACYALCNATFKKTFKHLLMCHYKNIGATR
GR (h), sequence (P04150 whole entry): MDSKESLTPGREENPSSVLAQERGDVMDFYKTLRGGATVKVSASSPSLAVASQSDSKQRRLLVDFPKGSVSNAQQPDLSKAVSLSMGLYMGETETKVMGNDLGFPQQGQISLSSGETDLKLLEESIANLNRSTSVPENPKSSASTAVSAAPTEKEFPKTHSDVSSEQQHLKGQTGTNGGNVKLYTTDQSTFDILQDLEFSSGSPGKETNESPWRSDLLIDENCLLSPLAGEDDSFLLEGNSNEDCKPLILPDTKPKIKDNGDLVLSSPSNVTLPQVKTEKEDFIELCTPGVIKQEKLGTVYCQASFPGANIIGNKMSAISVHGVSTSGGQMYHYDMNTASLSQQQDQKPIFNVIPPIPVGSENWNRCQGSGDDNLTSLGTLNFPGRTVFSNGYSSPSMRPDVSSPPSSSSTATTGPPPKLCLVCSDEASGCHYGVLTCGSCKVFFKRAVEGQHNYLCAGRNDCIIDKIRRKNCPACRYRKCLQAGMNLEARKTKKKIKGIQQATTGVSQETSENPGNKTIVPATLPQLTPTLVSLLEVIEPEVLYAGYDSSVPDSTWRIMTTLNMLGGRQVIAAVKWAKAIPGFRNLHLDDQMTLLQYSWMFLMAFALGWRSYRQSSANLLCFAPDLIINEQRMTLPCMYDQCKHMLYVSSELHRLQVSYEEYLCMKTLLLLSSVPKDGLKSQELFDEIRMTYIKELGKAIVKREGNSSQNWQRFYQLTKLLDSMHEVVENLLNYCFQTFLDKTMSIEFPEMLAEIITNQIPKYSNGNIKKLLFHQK
CCK1 (CCKA) (h), sequence (P32238 whole entry): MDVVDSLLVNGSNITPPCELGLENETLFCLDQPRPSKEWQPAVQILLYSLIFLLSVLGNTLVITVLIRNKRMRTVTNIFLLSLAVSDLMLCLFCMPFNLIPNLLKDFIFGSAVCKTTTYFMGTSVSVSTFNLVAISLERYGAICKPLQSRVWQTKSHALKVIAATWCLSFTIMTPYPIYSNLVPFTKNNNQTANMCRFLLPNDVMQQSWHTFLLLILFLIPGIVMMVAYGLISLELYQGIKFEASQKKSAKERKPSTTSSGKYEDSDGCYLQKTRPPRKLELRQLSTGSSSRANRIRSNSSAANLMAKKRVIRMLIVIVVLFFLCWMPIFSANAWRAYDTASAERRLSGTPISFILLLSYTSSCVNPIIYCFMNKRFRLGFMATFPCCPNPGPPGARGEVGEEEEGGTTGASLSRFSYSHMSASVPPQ
alpha 2A (h), sequence (P08913 whole entry): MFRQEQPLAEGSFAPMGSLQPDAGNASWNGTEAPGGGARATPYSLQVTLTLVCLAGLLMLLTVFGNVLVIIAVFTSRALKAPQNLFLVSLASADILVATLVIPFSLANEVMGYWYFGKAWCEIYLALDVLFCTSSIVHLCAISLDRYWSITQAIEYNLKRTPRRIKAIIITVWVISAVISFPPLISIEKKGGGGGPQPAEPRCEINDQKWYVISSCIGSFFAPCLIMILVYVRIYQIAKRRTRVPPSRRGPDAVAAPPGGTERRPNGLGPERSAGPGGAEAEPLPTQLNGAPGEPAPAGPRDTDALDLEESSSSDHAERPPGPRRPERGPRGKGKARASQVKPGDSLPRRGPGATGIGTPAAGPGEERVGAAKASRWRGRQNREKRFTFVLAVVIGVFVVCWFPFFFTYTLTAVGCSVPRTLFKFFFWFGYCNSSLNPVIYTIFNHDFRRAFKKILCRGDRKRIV
5-HT1A (h), sequence (P08908 whole entry): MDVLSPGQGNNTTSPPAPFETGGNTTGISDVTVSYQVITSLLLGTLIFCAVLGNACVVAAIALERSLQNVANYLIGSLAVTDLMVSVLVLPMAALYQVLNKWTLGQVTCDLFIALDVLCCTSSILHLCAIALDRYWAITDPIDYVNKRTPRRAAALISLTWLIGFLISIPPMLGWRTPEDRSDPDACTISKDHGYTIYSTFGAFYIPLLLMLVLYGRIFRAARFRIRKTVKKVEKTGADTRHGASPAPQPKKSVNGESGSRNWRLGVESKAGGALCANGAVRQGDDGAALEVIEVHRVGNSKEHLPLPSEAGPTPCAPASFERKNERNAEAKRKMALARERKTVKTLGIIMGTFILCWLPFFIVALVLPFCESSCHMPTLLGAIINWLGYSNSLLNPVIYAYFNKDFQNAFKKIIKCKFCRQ
5-HT3 (h), sequence (P46098 24-478): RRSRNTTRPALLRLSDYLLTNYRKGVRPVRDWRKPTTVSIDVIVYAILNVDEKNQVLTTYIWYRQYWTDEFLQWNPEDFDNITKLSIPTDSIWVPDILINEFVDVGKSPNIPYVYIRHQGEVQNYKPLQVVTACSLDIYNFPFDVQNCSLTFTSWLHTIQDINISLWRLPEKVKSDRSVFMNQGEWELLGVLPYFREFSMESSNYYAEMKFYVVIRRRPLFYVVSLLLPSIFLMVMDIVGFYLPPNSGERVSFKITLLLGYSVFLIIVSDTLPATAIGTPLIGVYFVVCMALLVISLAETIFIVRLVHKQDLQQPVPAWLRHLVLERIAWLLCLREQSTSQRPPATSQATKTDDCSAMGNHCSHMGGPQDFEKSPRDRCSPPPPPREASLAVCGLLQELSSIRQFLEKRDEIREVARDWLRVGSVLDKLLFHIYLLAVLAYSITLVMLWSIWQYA
acetylcholinesterase (h), sequence (P22303 32-614): as the sequence (P22303 32-614) above

CCN(CC)CCOc1ccc2c(c1)C(=O)c1cc(OCCN(CC)CC)ccc1-2 [tilorone]
inhibition at 1 µM (ETA (h)): 5%
% Inhibition of Specific Control Binding (KV channel): 0%
inhibition at 1 µM (A2A (h)): -4%
% Inhibition of Specific Control Binding [1]: 4%
inhibition at 1 µM (H1 (h)): -6%
inhibition at 1 µM (hERG potassium channel): -4%
inhibition at 1 µM (5-HT3 (h)): 6%
inhibition at 1 µM (CCK1 (CCKA) (h)): -5%
inhibition at 1 µM (beta 2 (h)): -6%
inhibition at 1 µM (M1 (h)): 28%
inhibition at 1 µM [2]: 14%
inhibition at 1 µM (D1 (h)): -10%
inhibition at 1 µM (PDE3A (h)): 2%
inhibition at 1 µM (COX2(h)): -1%
inhibition at 1 µM (alpha 1A (h)): 26%
inhibition at 1 µM (CB2 (h)): -16%
inhibition at 1 µM (mu (MOP) (h)): -4%
inhibition at 1 µM (D2S (h)): 1%
inhibition at 1 µM [3]: 0%
inhibition at 1 µM (kappa (h) (KOP)): 4%
inhibition at 1 µM (COX1(h)): -17%
Bottom of curve, Eurofins human AChE (human AChE [4]; % Inhibition of Control Values): −7
Top of curve, Eurofins human AChE (human AChE [4]; % Inhibition of Control Values): 99
IC50 (human AChE [4]; third-party photometric assay, read-out: IC50 against human AChE (Eurofins Discovery)): 56 nM
Hill slope, Eurofins human AChE curve (human AChE [4]; two-fold dilution from 5 μM): 1.0
% Inhibition of Specific Control Binding (BZD (central)): −9%
inhibition at 1 µM (CB1 (h)): 0%
IC50 ([5]; dose-response, 1% DMSO): 14.4 nM
inhibition at 20 µM ([5]; eel AChE activity, at 20 μM, read-out: Percentage inhibition): 103%
assay interference test versus enzyme-free H2O2 reaction ([5]; parallel dose-response with 5 μM H2O2): likely represent true inhibition of the enzyme
inhibition at 20 µM ([5]; read-out: inhibition of enzyme activity compared to DMSO control (screen)): ≥ 50%
Hill slope, eel AChE dose-response ([5]; sixteen-point serial dilution, four-parameter fit): 0.62
inhibition at 1 µM (5-HT2B (h)): -9%
% Inhibition of Specific Control Binding (Na+ channel (site 2)): 1%
% Inhibition of Specific Control Binding (NMDA): −10%
inhibition at 1 µM (MAO-A): 3%
inhibition at 1 µM (5-HT1B (h)): 21%
inhibition at 1 µM (Lck kinase (h)): 13%
inhibition at 1 µM (5-HT1A (h)): 12%
inhibition at 1 µM (GR (h)): -5%
inhibition at 1 µM (PDE4D2 (h)): -15%
% Inhibition of Control Values (acetylcholinesterase (h)): 92%
inhibition at 1 µM (delta (DOP) (h)): 0%
inhibition at 1 µM (alpha 2A (h)): 0%
inhibition at 1 µM (V1a (h)): -1%
IC50 (human AChE [6]; average of the colorimetric and Eurofins values, read-out: average IC50 for human AChE): 64.6 nM
IC50 (human AChE [6]; colorimetric kit, n=2, read-out: IC50 against human AChE (colorimetric assay)): 73.3 nM
Hill slope, human AChE colorimetric dose-response (human AChE [6]; two-fold 16-point dilution from 20 μM): 0.84
inhibition at 1 µM (5-HT transporter (h)): 44%
inhibition at 1 µM (5-HT2A (h)): 25%
IC50 [7]: > 50 nM
inhibition at 100 µM ([7]; at 100 μM, single point, read-out: inhibition of human BChE): 50%
inhibition at 1 µM (M3 (h)): 17%
inhibition at 1 µM (M2 (h)): 26%
inhibition at 1 µM (H2 (h)): -11%
inhibition at 1 µM (beta 1 (h)): 5%
inhibition at 1 µM (dopamine transporter (h)): -9%

Reference: patent US20230330045A1 (priority 2020, published 2023)
